The source of these data is US9783518B2, “Therapeutic agent and treatment method for ameliorating uremia” (Toray Industries, Inc., priority 2005, dated 2017).

The test system of experiment [1] is HUS. As to conditions: in vivo; cited from earlier work.
The subject of experiment [2] is renal function impairment induced by uninephrectomy, high sodium loading and protein loading. The following applies: cited from earlier work.
Experiment [3] concerns streptozotocin-induced diabetic nephropathy rats. The following applies: cited from earlier work.
In experiment [4] the test system is Thy-1-induced nephritis models. The following applies: prophylactic administration before induction of nephritis; cited from earlier work.
For experiment [5], the system named is HUS. The following applies: one case of HUS; cited from earlier work.
The test system of experiment [6] is cats with chronic renal failure. The experiment can be described thus: Blood biochemical analysis and urinalysis (BUN, serum Cre, glucose) in cats with chronic renal failure. Type of experiment: in vivo, cat. The following applies: Case-F, male cat 11 y, diabetic nephropathy; protamine zinc insulin 2 units/BID, 2 months. On the procedure: Testing methods for the patients showing uremia caused by chronic renal failure, employed in Example 4 or later, will now be described. The criteria and evaluation items for the cats and dogs with chronic renal failure are as follows: Diagnosis of uremia and chronic renal failure were performed totally taking clinical findings (including findings of uremia) and the results of the blood test, blood biochemical analysis and urinalysis into consideration. As the clinical findings of uremia, existence and degree of polydipsia and diuresis, dehydration, anorexia, weight loss, vomiting symptom and state of dehydration were observed. Existence of chronic renal failure was judged based on the serum Cre value as generally employed. As reference data for grasping the degree of progress of chronic renal failure, BUN value was also monitored.
In the blood test, RBC, WBC, PCV, Hg and PLT were measured. In the blood biochemical analysis, TP, Tcho, AST, ALT, ALP, Tbil, BUN, creatinine, calcium, inorganic phosphorus, glucose, sodium ion, potassium ion and chloride ion were measured. In the urinalysis, protein amount, pH, occult blood, bilirubin and glucose were measured. To eliminate the circadian rhythm and influence by meals on the values of blood biochemical markers, every blood collection was carried out in the morning before feeding (at fasting).
As a more specific criterion for chronic renal failure in cats and dogs in the present Examples, a serum Cre value of 1.4 mg/dL in the blood test was employed. Serum Cre value was measured by creatinine deaminase-amidohydrolase method, and the BUN value as reference data for grasping the degree of progress of chronic renal failure was measured by urease-GLDH method.
Administration of beraprost sodium was conducted by orally administering the tablet with a content of 150 μg/tablet (Example 1) twice a day (300 μg/head/day). The administration was conducted every day and continued basically for 6 months, and in cases where the owner desired, the administration was continued even after the test period. The Examples of the present invention include both cases where the dosing period was less than 6 months and more than 6 months.

With `CCCCC[C@H](O)/C=C/[C@@H]1[C@H]2C/C(=C/CCCC(=O)O)O[C@H]2C[C@H]1O` [PGI2, prostaglandin I2], the “progress of HUS” value with HUS [1] was “does not have an activity to inhibit the progress of HUS”. As for `CCC#CC[C@H](C)[C@H](O)C#C[C@@H]1[C@H]2C/C(=C/COCC(=O)O)C[C@H]2C[C@H]1O` [cicaprost], the renal function impairment result in experiment [2] and in experiment [3] was “activity to reduce the renal function impairment” throughout. For the compound `CC#CCC(C)[C@H](O)/C=C/[C@@H]1[C@H]2C/C(=C/CCCC(=O)O)C[C@H]2C[C@H]1O` (stereo partly drawn) [iloprost], in experiment [4], the urinary protein entry was “decreased”. Besides, the “improvement of the serum Cre value” in the experiment on HUS [5] was “effective”.

In turn, “insulin: protamine zinc insulin for treating diabetes” displayed a fasting blood glucose in experiment [6] of 100 mg/dL.
